# Assay results from publication PMC2844711 (The Journal of neuroscience : the official journal of the …, 2010).
# Biological target: GluA4 (Rattus norvegicus, UniProt P19493, L505Y/L672V)
# Assay: whole-cell patch clamp in tsA201 cells, agonist dose-response
# Format: cell-based
# Sequence of GluA4 (P19493 21-902 L505Y/L672V): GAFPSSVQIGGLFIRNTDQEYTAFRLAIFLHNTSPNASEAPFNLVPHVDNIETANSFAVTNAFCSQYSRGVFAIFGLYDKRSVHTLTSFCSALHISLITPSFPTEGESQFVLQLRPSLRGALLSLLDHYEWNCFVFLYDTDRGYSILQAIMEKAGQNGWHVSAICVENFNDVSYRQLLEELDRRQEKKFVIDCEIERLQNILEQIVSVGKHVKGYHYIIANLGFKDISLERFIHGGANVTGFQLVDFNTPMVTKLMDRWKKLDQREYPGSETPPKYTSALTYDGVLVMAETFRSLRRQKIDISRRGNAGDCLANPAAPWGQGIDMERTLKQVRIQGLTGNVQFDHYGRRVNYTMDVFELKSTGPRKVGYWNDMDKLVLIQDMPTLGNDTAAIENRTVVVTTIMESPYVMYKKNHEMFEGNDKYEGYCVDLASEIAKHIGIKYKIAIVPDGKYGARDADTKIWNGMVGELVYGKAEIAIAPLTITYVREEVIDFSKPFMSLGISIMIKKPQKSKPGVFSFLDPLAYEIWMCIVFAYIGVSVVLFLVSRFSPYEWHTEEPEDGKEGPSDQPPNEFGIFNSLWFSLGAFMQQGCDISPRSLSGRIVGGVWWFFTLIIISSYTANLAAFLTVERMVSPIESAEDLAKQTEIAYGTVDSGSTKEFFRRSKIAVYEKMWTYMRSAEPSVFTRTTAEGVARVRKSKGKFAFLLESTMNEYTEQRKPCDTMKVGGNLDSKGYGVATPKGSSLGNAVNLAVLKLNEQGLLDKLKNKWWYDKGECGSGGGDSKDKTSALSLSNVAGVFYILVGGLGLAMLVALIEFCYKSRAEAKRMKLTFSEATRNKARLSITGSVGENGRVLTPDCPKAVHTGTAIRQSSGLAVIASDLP
smiles,measurement,value
"C=C(C)[C@H]1CN[C@H](C(=O)O)[C@H]1CC(=O)O [KA, kainate]",EC50,324 ± 35 µM
